Data taken from ChEMBL document CHEMBL5230119, “Development of differentiation modulators and targeted agents for treating neuroblastoma” (Eur J Med Chem, 2020).

Columns and labels:
[1] = system: IMR-32; assay: Antiproliferative activity against human IMR-32 cells assessed as cell growth inhibition; type: functional, cell-based
[2] = Synergistic antiproliferative activity against MYCN amplified human Neuroblastoma cell in presence of JQ1
[3] = Synergistic antiproliferative activity against MYCN amplified human Neuroblastoma cell in presence of OTX-015; type: functional, cell-based

O=C(c1ccc(F)c(F)c1Nc1ccc(I)cc1F)N1CC(O)([C@@H]2CCCCN2)C1 [COBIMETINIB] gave an IC50 [1] of 70 nM.

With Cc1sc2c(c1C)C(c1ccc(Cl)cc1)=N[C@@H](CC(=O)Nc1ccc(O)cc1)c1nnc(C)n1-2 [BIRABRESIB] the IC50 [2] was 839 nM.

Compound Cc1sc2c(c1C)C(c1ccc(Cl)cc1)=N[C@@H](CC(=O)NC(C)(C)C)c1nnc(C)n1-2 has an IC50 [3] of 1480 nM.
